Results published in patent publication US7417156B2, “Orally active, antimalarial, anticancer, artemisinin-derived trioxane dimers” (Johns Hopkins University, priority 2002, dated 2008).

Columns and labels:
Experiment in all cases: NCI 60 cell line panel screen (SRB)
Type in all cases: cell-based, human
NCI-H522 = conditions: for Log10TGI50: NCI-H522 (Non-Small Cell Lung Cancer), TGI: PG=0; for Log10LC50: NCI-H-522 (Non-Small Cell Lung Cancer), LC50: PG=−50
SF-268 = conditions: for Log10GI50: CNS Cancer, SF-268; for Log10LC50 / Log10TGI50: SF-268 (CNS Cancer); for Log10LC50: LC50: PG=−50; for Log10TGI50: TGI: PG=0
NCI-H23 = conditions: for Log10LC50 / Log10TGI50: NCI-H23 (Non-Small Cell Lung Cancer); for Log10LC50: LC50: PG=−50; for Log10TGI50: TGI: PG=0; for Log10GI50: Non-Small Cell Lung Cancer, NCI-H23
MDA-MB231/ATCC = conditions: for Log10GI50: Breast Cancer, MDA-MB231/ATCC; for Log10LC50 / Log10TGI50: MDA-MB231/ATCC (Breast Cancer); for Log10LC50: LC50: PG=−50; for Log10TGI50: TGI: PG=0
SNB-19 = conditions: for Log10GI50: CNS Cancer, SNB-19; for Log10LC50 / Log10TGI50: SNB-19 (CNS Cancer); for Log10LC50: LC50: PG=−50; for Log10TGI50: TGI: PG=0
RXF 393 = conditions: for Log10LC50 / Log10TGI50: RXF 393 (Renal Cancer); for Log10LC50: LC50: PG=−50; for Log10TGI50: TGI: PG=0; for Log10GI50: Renal Cancer, RXF 393
SK-MEL-2 = conditions: for Log10GI50: Melanoma, SK-MEL-2; for Log10LC50: SK-MEL2 (Melanoma), LC50: PG=−50; for Log10TGI50: SK-MEL-2 (Melanoma), TGI: PG=0
M14 = conditions: for Log10LC50: M14 (Melanoma), LC50: PG=−50; for Log10TGI50: M-14 (Melanoma), TGI: PG=0; for Log10GI50: Melanoma, M14
MALME-3M = conditions: for Log10LC50 / Log10TGI50: MALME-3M (Melanoma); for Log10LC50: LC50: PG=−50; for Log10TGI50: TGI: PG=0
HCT-116 = conditions: for Log10GI50: Colon Cancer, HCT-116; for Log10LC50 / Log10TGI50: HCT-116 (Colon Cancer); for Log10LC50: LC50: PG=−50; for Log10TGI50: TGI: PG=0
HOP-62 = conditions: for Log10LC50 / Log10TGI50: HOP-62 (Non-Small Cell Lung Cancer); for Log10LC50: LC50: PG=−50; for Log10TGI50: TGI: PG=0
IGROVI = conditions: for Log10LC50 / Log10TGI50: IGROVI (Ovarian Cancer); for Log10LC50: LC50: PG=−50; for Log10TGI50: TGI: PG=0; for Log10GI50: Ovarian Cancer, IGROVI
BT-549 = conditions: for Log10LC50 / Log10TGI50: BT-549 (Breast Cancer); for Log10LC50: LC50: PG=−50; for Log10TGI50: TGI: PG=0; for Log10GI50: Breast Cancer, BT-549
CAKI-1 = conditions: for Log10LC50 / Log10TGI50: CAKI-1 (Renal Cancer); for Log10LC50: LC50: PG=−50; for Log10TGI50: TGI: PG=0; for Log10GI50: Renal Cancer, CAKI-1
SF-539 = conditions: for Log10GI50: CNS Cancer, SF-539; for Log10LC50: LC50: PG=−50
NCI/ADR-RES = conditions: for Log10GI50: Breast Cancer, NCI/ADR-RES; for Log10LC50: LC50: PG=−50
SK-OV-3 = conditions: for Log10GI50: Ovarian Cancer, SK-OV-3; for Log10LC50 / Log10TGI50: SK-OV-3 (Ovarian Cancer); for Log10LC50: LC50: PG=−50; for Log10TGI50: TGI: PG=0
EKVX = system: EKVX

`CC1CCC2C(C)C(CC(O)(CO)CC3OC4OC5(C)CCC6C(C)CCC(C3C)C46OO5)OC3OC4(C)CCC1C32OO4` (stereo not shown) [Compound 5, bis-trioxane vicinal diol] was tested, and the Log10TGI50 (NCI-H522) was −4.59 log10M, the Log10LC50 (NCI-H522) was −4.17 log10M and the Log10GI50 (NCI-H522; Non-Small Cell Lung Cancer, NCI-H522) was −7.33. It also gave a Log10GI50 (SF-268) of −4.94, a Log10LC50 (SF-268) of −4.12 log10M and a Log10TGI50 (SF-268) of −4.53 log10M. It also gave a Log10LC50 (NCI-H23) of over −4.00 log10M, a Log10TGI50 (NCI-H23) of −4.26 log10M and a Log10GI50 (NCI-H23) of −4.83. For the same compound, the Log10GI50 (MDA-MB231/ATCC) was −4.99, the Log10LC50 (MDA-MB231/ATCC) was −4.15 log10M and the Log10TGI50 (MDA-MB231/ATCC) was −4.57 log10M. For the same compound, the Log10GI50 (SNB-19) was −4.82, the Log10LC50 (SNB-19) was over −4.00 log10M and the Log10TGI50 (SNB-19) was −4.34 log10M. For the same compound, the Log10LC50 (RXF 393) was −4.18 log10M, the Log10TGI50 (RXF 393) was −4.53 log10M and the Log10GI50 (RXF 393) was −4.89. For the same compound, the Log10GI50 (SK-MEL-2) was −4.94, the Log10LC50 (SK-MEL-2) was −4.12 log10M and the Log10TGI50 (SK-MEL-2) was −4.53 log10M. It also gave a Log10LC50 (M14) of over −4.00 log10M, a Log10TGI50 (M14) of over −4.00 log10M and a Log10GI50 (M14) of −4.59. For the same compound, the Log10LC50 (MALME-3M) was −4.11 log10M, the Log10TGI50 (MALME-3M) was −4.50 log10M and the Log10GI50 (HCT-116) was −4.72. It also gave a Log10LC50 (HCT-116) of over −4.00 log10M, a Log10TGI50 (HCT-116) of over −4.00 log10M and a Log10LC50 (HOP-62) of over −4.00 log10M. It also gave a Log10TGI50 (HOP-62) of −4.26 log10M, a Log10GI50 (HOP-62; Non-Small Cell Lung Cancer, HOP-62) of −4.66 and a Log10LC50 (IGROVI) of −4.17 log10M. The Log10TGI50 (IGROVI) was −4.57 log10M, the Log10GI50 (IGROVI) was −4.97 and the Log10LC50 (BT-549) was −4.30 log10M. It also gave a Log10TGI50 (BT-549) of −4.81 log10M, a Log10GI50 (BT-549) of under −8.00 and a Log10LC50 (CAKI-1) of −4.13 log10M. For the same compound, the Log10TGI50 (CAKI-1) was −4.54 log10M, the Log10GI50 (CAKI-1) was −4.94 and the Log10GI50 (SF-539) was −4.86. For the same compound, the Log10LC50 (SF-539; SF-539 (CNS Cancer)) was over −4.00 log10M, the Log10TGI50 (SF-539; SF-539 (CNS Cancer), TGI: PG=0) was −4.41 log10M and the Log10GI50 (NCI/ADR-RES) was −4.75. For the same compound, the Log10LC50 (NCI/ADR-RES; NCI/ADR-RES (Breast Cancer)) was over −4.00 log10M, the Log10GI50 (SK-OV-3) was −4.62 and the Log10LC50 (SK-OV-3) was over −4.00 log10M. The Log10TGI50 (SK-OV-3) was −4.15 log10M.
For `CC1CCC2C(C)C(CC(COC(=O)c3cc[n+]([O-])cc3)CC3OC4OC5(C)CCC6C(C)CCC(C3C)C46OO5)OC3OC4(C)CCC1C32OO4` (stereo not shown) [Compound 13, bis-trioxane primary alcohol isonicotinate N-oxide], the Log10TGI50 (NCI-H522) was −4.60 log10M, the Log10LC50 (NCI-H522) was over −4.30 log10M and the Log10GI50 (SF-268) was −5.29. The Log10LC50 (SF-268) was −4.31 log10M, the Log10TGI50 (SF-268) was −4.80 log10M and the Log10LC50 (NCI-H23) was −4.62 log10M. For the same compound, the Log10TGI50 (NCI-H23) was −5.17 log10M, the Log10GI50 (NCI-H23) was under −8.30 and the Log10GI50 (MDA-MB231/ATCC) was −7.64. It also gave a Log10LC50 (MDA-MB231/ATCC) of −4.77 log10M, a Log10TGI50 (MDA-MB231/ATCC) of −6.32 log10M and a Log10GI50 (SNB-19) of −5.08. The Log10LC50 (SNB-19) was over −4.30 log10M, the Log10TGI50 (SNB-19) was over −4.30 log10M and the Log10LC50 (RXF 393) was over −4.30 log10M. For the same compound, the Log10TGI50 (RXF 393) was −4.69 log10M, the Log10GI50 (RXF 393) was −5.20 and the Log10GI50 (SK-MEL-2) was −5.12. The Log10LC50 (SK-MEL-2) was over −4.30 log10M, the Log10TGI50 (SK-MEL-2) was over −4.30 log10M and the Log10LC50 (M14) was over −4.30 log10M. It also gave a Log10TGI50 (M14) of −4.75 log10M, a Log10GI50 (M14) of −5.81 and a Log10LC50 (MALME-3M) of −4.66 log10M. For the same compound, the Log10TGI50 (MALME-3M) was under −8.30 log10M, the Log10GI50 (MALME-3M; Melanoma, MALME-3M) was under −8.30 and the Log10GI50 (HCT-116) was under −8.30. The Log10LC50 (HCT-116) was over −4.30 log10M, the Log10TGI50 (HCT-116) was −5.06 log10M and the Log10LC50 (HOP-62) was −4.54 log10M. For the same compound, the Log10TGI50 (HOP-62) was −4.91 log10M, the Log10LC50 (IGROVI) was over −4.30 log10M and the Log10TGI50 (IGROVI) was over −4.30 log10M. For the same compound, the Log10GI50 (IGROVI) was −5.36, the Log10LC50 (BT-549) was −4.61 log10M and the Log10TGI50 (BT-549) was −5.07 log10M. For the same compound, the Log10GI50 (BT-549) was under −8.30, the Log10LC50 (CAKI-1) was −4.66 log10M and the Log10TGI50 (CAKI-1) was −5.11 log10M. The Log10GI50 (CAKI-1) was −7.36, the Log10GI50 (SF-539) was under −8.30 and the Log10LC50 (SF-539; SF-539 (CNS Cancer)) was −4.56 log10M. It also gave a Log10LC50 (EKVX; EKVX (Non-Small Cell Lung Cancer), LC50: PG=−50) of −4.59 log10M, a Log10TGI50 (EKVX; EKVX (Non-Small Cell Lung Cancer), TGI: PG=0) of −5.08 log10M and a Log10GI50 (EKVX; Non-Small Cell Lung Cancer, EKVX) of −8.19. The Log10GI50 (NCI/ADR-RES) was −7.60, the Log10LC50 (NCI/ADR-RES; NCI/ADR-RES (Breast Cancer)) was −4.65 log10M and the Log10TGI50 (NCI/ADR-RES; NCI/ADR-RES (Breast Cancer), TGI: PG=0) was −5.18 log10M. It also gave a Log10GI50 (SK-OV-3) of −5.13, a Log10LC50 (SK-OV-3) of −4.31 log10M and a Log10TGI50 (SK-OV-3) of −4.72 log10M.
